Ends that are not written are not given here.

The target in series [1] is T1, purified PKN from rat testis (Rattus norvegicus, UniProt Q63433).
T1 construct: The purified PKN (1 ng) from rat testis cytosol; from tissue; host or cells: rat testis (cytosol / soluble fraction)
The experiment in a line: Phosphorylation of native NF by PKN. The note with it: 40 μM arachidonic acid. It counts as biochemical. The method, then: Native NFs were prepared from bovine spinal cords according to a method described in Hisanaga, S. & Hirokawa, N., J. Mol. Biol. 202, 297-305 (1988). Kinase assay was carried out according to the following method.
Soluble cytosolic extract of spinal cord or purified NF proteins were boiled for 5 min to destroy endogenous protein kinase activity prior to their use as phosphate acceptors. The phosphorylation of NF preparations was carried out at 30° C. in an assay mixture containing 20 mM Tris/HCl at pH 7.5, 8 mM MgCl2, 100 μM ATP, 185 kBq of [γ-^32P]ATP, each subunit of NF, 20 ng/ml of purified PKN from rat testis, and with/without 40 μM arachidonic acid as indicated in each experiment. Reactions were terminated after various times by the addition of an equal volume of Laemli's sample buffer, and separation was performed on 7% SDS-PAGE. The gels were dried under vacuum and exposure to BAS1000 bio-imaging analyzer. Dephosphorylation of NF proteins was conducted with calf intestine alkaline phosphatase according to a method described in Carden, M. J. et al., J. Biol. Chem. 260, 9805-9817 (1985) and terminated after boiling for 5 min.

For series [2], the target named is T2, PKN purified from rat testis (Rattus norvegicus, UniProt Q63433).
T2 construct: The purified PKN (1 ng) from rat testis cytosol; from tissue; host or cells: rat testis (cytosol / soluble fraction)
Briefly: Phosphorylation of α-actinin and actin-cytoskeletal proteins by PKN. It counts as biochemical. The note with it: presence of 40 μM arachidonic acid. The method, then:
α-Actinin used in the experiment was purified from bovine aorta by the method of Feramisco et al. (Feramisco, J. R. & Burridge, K. J. Biol. Chem, 255, 1194-1199 (1980)). The phosphorylation by PKN was carried out at 30° C. in an assay mixture containing 20 mM Tris/HCl at pH 7.5, 4 mM MgCl2, 100 μM ATP, 185 kBq of [γ-^32p] ATP, substrates for phosphorylation (phosphate acceptors), 20 ng/ml of purified PKN from rat testis (Abe, M., et al., J. Biochem. Tokyo 107, 507-509 (1990)) in the presence or absence of 40 μM arachidonic acid as indicated in each experiment. Partial purified protein was boiled for 3 min to destroy endogenous kinase activity before use as the substrate for phosphorylation. After incubation for 5 min, the reaction was terminated by the addition of an equal volume of Laemmli's sample buffer (Laemmli, U. K. Nature […], 680-685 (1970)), and separated on SDS-PAGE. The gels were dried under vacuum and the phosphorylation was visualized and quantitated by an imaging analyzer (FUJI BAS1000). When the δPKC peptide (Mukai, H., et al. Biochem, Biophys. Res. Commun. 204, 348-356 (1994)) was used as the substrate for phosphorylation, reactions were terminated by spotting a mixture onto a Whatman P81 paper and submerging it in 75 mM phosphate, and followed by three times of 10 min washes. Incorporation of ^32p into the peptide was assessed by scintillation counting. […]

For a further series, the system named is Rat-1 cells. Briefly: Subcellular distribution of PKN after sodium arsenite (immunofluorescence). It counts as cell-based. The note with it: 50 μM, 37° C. for 2 hr. As for the experimental part: (§1) Cells grown on coverslips were washed twice with phosphate-buffered saline (PBS), fixed for 1 hr at 4° C. in 4% paraformaldehyde, rinsed with PBS, and then blocked for 1 hr in PBS-T (PBS containing 0.05% Triton X-100) containing 5% normal goat serum. After washing with PBS, cells were incubated overnight at 4° C. with each antiserum which has been diluted with PBS to an antiserum concentration of about 10 μg/ml. Coverslips were then rinsed with PBS-T, and incubated with fluorescein isothiocyanate isomer I (FITC)-conjugated goat anti-rabbit IgG (Medical and biological laboratories, Co. Ltd.) for 60 min. Coverslips were rinsed with PBS-T followed by PBS, mounted with glycerol containing 0.1% 1, 4-diazabicyclo (2, 2, 2) octane (DABCO), and viewed on a Zeiss laser scanning microscope.
An experiment was made in order to examine whether the subcellular distribution of PKN is influenced also by chemical shock. It is known that toxic compounds and toxic heavy metals also induce heat shock proteins and the stress responses in experimental systems (Maytin, E. V. & Young, D. A., J. Biol. Chem. 258, 12718-12722 (1983)). It is also known that cellular response similar to the stress induced by the heat shock is created also by treatment with sodium arsenite (Welch, W. J. & Suhan, J. P., J. Cell Biol. 103, 2035-2052 (1986)). […]

The target in a further series is T3, PKN (Rattus norvegicus, UniProt Q63433).
T3 construct: The purified PKN (1 ng) from rat testis cytosol; from tissue; host or cells: rat testis (cytosol / soluble fraction)
The experiment in a line: Inhibition of protein kinase activity of PKN with synthetic peptides (δPKC peptide substrate). It counts as biochemical. The note with it: δPKC peptide at Km concentration (10 μM). As for the experimental part: Kinase assay was carried out by the following method. The purified PKN (1 ng) from rat testis cytosol (Kitagawa, M. et al., Biochem. J. 310, 657-664. (1995)) was incubated for 5 min at 30° C. in a reaction mixture (final volume 25 μl) containing 50 mM Tris/HCl (pH 7.5), 8 mM Mgcl2, 20 μM ATP, 18.5 kBq of [γ-^32p] ATP, 40 μM arachidonic acid, phosphate acceptors and inhibitors as indicated in each experiment. Reactions were started by the addition of the enzyme source and terminated by spotting them onto Whatman P81 papers immersed in 75 mM phosphate. Incorporation of ^32P into phosphate acceptors was assessed by liquid scintillation counting. The protein kinase assay was carried out in the same manner as in Example 13, except that PKN was measured by using 6PKC peptide as a substrate and PKN (39-53) peptide (FIG. 22; black circle) or PKN (54-73) (FIG. 22: white circle) as an inhibitor. The concentration of δPKC peptide was Km concentration (10 μM). The protein kinase reaction was carried out in the presence of PKN (39-53) peptide or PKN (54-73) peptide with various concentrations.

For series [3], the target named is T4, GST-RhoGAP-stimulated GTPase activity of GST-RhoA (Homo sapiens, UniProt P61586).
T4 construct: made in house
Briefly: GAP-stimulated GTPase activity of RhoA. It counts as biochemical. The note with it: 50 nM GST-RhoGAP, 2 min 25° C., concentration-dependent. As for the experimental part:
The GAP-stimulated GTPase activity of RhoA was assayed by measuring the decreased radioactivity of [γ-^32p] GTP.GST-RhoA for 2 min at 25° C. in the presence of 50 nM of p122 Rho GAP fused to GST (GST-RhoGAP) and MBP-PKN with various concentrations in 100 μl of reaction mixture (20 mM Tris/HCl at pH 7.5, 10 mM EDTA, 1 mM DTT, 10 mM MgCl2, 1 mM GTP, 0.075% CHAPS, 0.25 mM L-α-dimyristoylphosphatidylcholine, 100 nM [γ-^32p] GTP bound form of GST-RhoA) (Homma, Y. & Emori, Y., EMBO J. 14, 286-291 (1995).

Series [4] relates to PK^−/neo#5 cells (NIH 3T3). The experiment in a line: Heat shock induced nuclear translocation of PKN in PK^−/neo#5 cells. It counts as cell-based. The method, then:
as §1
At the outset, NIH 3T3 cells which stably overexpresses PKN-PK^− were constructed by the following procedure. A vector phPKNH4-PK^− was constructed by conversion of the lysine at the potential ATP-binding site to an arginine by in vitro site-directed mutagenesis (Mukai, H. & Ono, Y., Biochem. Biophys. Res. Commun. 199, 897-904 (1994)). […]

In a further series the test system is PKN autophosphorylation. The experiment in a line: Kinase activity (autophosphorylation) of immunoprecipitated PKN-PK^−. It counts as biochemical, human. The note with it: immunoprecipitate from PK^−/neo#5 cells. As for the experimental part:
To examine whether PKN-PK^− has kinase activity, the kinase activity of PKN-PK^−, which has been immunoprecipitated by cells, was assayed. Specifically, the assay was carried out according to the following procedure.
The experiment on immunoprecipitation was carried out at 0 to 4° C. The wild type NIH 3T3 cells and PK^−/neo#5 cells were lysed in 0.5 ml of buffer B (20 mM Tris/HCl at pH 7.5, 1% Nonidet P-40, 137 mM NaCl, 10% glycerol, 1 mM PMSF, 20 μg/ml aprotinin, 10 μg/ml leupeptin, 2.5 mM sodium fluoride, 0.25 mM sodium vanadate) for 1 hr. Insoluble materials were removed by centrifugation at 15,000×g for 10 min, and the supernatants were incubated with 1 μl of 10-fold diluted antiserum αN2 (Example 19) for 2 hr. After addition of 40 μl of 50% protein A Sepharose, the mixtures were further incubated for 1 hr. […] Each immunoprecipitate was incubated for 5 min at 30° C. with a 25-μl mixture (20 mM Tris/HCl at pH 7.5, 4 mM MgCl2, 40 μM ATP, 185 kBq of [γ-^32P] ATP without exogenous substrate. After addition of 5 μl of 6×Laemmli sample buffer (Laemmli, U. K. Nature 227, 680-685 (1970)) and boiling, a 20-μl aliquot of the mixture was subjected to 7% SDS-PAGE. The phosphorylation was visualized and quantitated by an imaging analyzer (Fuji BAS1000).

Series [5] deals with T5, catalytic subunit of bovine heart PKA (Bos taurus, UniProt P00517).
T5 construct: The catalytic subunit of bovine heart PKA used in the experiment was purified; from tissue; host or cells: bovine heart
The experiment in a line: Protein kinase assay with PKA (Kemptide substrate), specificity of inhibitor peptide. It counts as biochemical. The note with it: Kemptide at Km concentration (16 μM), no arachidonic acid; read-out: IC50 against PKA. As for the experimental part: In order to judge the specificity of the activity of the inhibitor peptide, a protein kinase assay was carried out using PKA as an enzyme specimen. The catalytic subunit of bovine heart PKA used in the experiment was purified according to a method described in Bechtel, P. J. et al., J. Biol. Chem. 252, 2691-2697 (1977). The protein kinase activity of PKA was measured by using Kemptide (Kemp, B. E. et al., J. Biol. Chem. 252, 4888-4894 (1977) as a substrate under the same conditions as those used in Example 13, except that arachidonic acid was not used. The concentration of Kemptide was the Km concentration (16 μM), and measurement was made using PKN (39-53) peptide as an inhibitor (FIG. 22; white square). The kinase activity was determined in the same manner as in Example 13.

A further series has as its target T6, purified PKN (Rattus norvegicus, UniProt Q63433).
T6 construct: The purified PKN (1 ng) from rat testis cytosol; from tissue; host or cells: rat testis (cytosol / soluble fraction)
Briefly: Kinetic assays of PKN inhibition by PKN (39-53) peptide. It counts as biochemical. The method, then:
In order to confirm the function of PKN (39-53) as a pseudosubstrate for PKN, kinetic assays were performed with purified PKN, a fixed ATP concentration of 100 μM, and various concentrations of δPKC peptide (10-80 μM). The protein kinase reaction of PKN was performed in the same manner as in Examples 13 and 14. The results, performed in the presence of 40-80 μM PKN (39-53) peptide, are shown in double-reciprocal plots (FIG. 23 (A)). The inhibition was competitive-noncompetitive and gave a linear secondary plot of Km/Vmax (a concentration required to give a half-maximal velocity/maximal velocity) versus inhibitor peptide concentrations (FIG. 23 (B)).

T6 sequence (Q63433 whole entry): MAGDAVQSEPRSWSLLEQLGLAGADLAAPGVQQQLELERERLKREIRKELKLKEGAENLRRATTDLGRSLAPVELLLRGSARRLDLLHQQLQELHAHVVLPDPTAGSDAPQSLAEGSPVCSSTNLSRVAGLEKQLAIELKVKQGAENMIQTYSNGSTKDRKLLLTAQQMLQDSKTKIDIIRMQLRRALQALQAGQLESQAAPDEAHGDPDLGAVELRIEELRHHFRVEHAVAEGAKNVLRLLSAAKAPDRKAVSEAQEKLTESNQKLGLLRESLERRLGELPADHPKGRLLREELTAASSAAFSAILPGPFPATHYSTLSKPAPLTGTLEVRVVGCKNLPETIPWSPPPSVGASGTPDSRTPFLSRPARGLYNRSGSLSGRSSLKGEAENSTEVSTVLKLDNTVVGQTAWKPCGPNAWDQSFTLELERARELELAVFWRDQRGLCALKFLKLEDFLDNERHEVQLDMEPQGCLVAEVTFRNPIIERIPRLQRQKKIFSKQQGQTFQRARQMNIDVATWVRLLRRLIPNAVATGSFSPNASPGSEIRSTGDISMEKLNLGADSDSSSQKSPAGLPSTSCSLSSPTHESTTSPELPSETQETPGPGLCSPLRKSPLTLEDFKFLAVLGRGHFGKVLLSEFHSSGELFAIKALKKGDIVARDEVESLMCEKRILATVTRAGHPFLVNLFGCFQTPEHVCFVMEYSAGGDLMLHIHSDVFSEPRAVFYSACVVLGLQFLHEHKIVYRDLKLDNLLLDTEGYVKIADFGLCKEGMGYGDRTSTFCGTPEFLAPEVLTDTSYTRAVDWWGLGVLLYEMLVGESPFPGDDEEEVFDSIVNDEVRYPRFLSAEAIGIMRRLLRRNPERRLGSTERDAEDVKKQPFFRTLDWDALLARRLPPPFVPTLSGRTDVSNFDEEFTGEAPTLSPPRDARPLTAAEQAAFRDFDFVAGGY
T2 sequence (Q63433 whole entry): as above
T4 sequence (P61586 whole entry): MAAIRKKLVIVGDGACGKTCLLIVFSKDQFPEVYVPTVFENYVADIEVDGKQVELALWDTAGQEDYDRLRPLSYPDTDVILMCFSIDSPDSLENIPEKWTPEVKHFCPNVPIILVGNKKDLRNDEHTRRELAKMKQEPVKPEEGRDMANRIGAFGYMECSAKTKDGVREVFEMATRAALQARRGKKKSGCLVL
T3 sequence (Q63433 whole entry): as the sequence (Q63433 whole entry) above
T1 sequence (Q63433 whole entry): as above

Turning to `CCCCC/C=C\C/C=C\C/C=C\C/C=C\CCCC(=O)O` [arachidonic acid], the “initial velocity of phosphorylation of each NF subunit by PKN, presence versus absence” value in series [1] is recorded as 5-10 times. In addition, in series [2], the “stimulation of phosphorylation of G-actin by PKN” value was “up to 2 fold” and the “stimulation of phosphorylation of caldesmon by PKN” value is “at least 6 fold”.
Take `O=[As]O` [sodium arsenite]: in the series with Rat-1 cells, the “effect on subcellular distribution of PKN” value is “translocation of PKN to the nucleus”.
With “EGAENLRRATTDLGRSLGPV [PKN (54-73) peptide]”, the “inhibitory activity against PKN” value with PKN is on record as “little or no inhibitory activity”.
In the case of “MBP-PKN: N-terminal region of PKN (amino acid sequence 7-155 in SEQ ID NO: 1) expressed as MBP fusion protein”, the “effect on GST-RhoGAP-stimulated GTPase activity of GST-RhoA” value in [3] is listed as “inhibited”.
As for “PKN-PK^−: single point mutation of human PKN in the kinase domain (K644R), protein kinase-negative mutant”, the “nuclear translocation of the mutant protein on heat shock” value in series [4] (42° C. or 44° C. for 90 min) is on record as “does not translocate to the nucleus”. In [4] (heat shock), the “effect of overexpression on translocation of endogenous PKN from cytoplasm to nucleus” value is recorded as “inhibits the translocation”. Also, in the series with PKN autophosphorylation, the “enzyme (kinase) activity of the mutant” value is recorded as “inactivated”.
One may read the IC50 as the concentration needed to halve the response being measured. With RERLRREIRKELKLK [PKN (39-53) peptide], the IC50 in series [5] is at least 1 mM. Besides, the “type of inhibition versus δPKC peptide substrate” value at purified PKN (100 μM ATP) is “competitive-noncompetitive”. On purified PKN (data not shown), the “type of inhibition with varying ATP concentration” value is “uncompetitive”.

These data come from patent US6660837B1, “Modified protein derived from protein kinase N” (Kirin Beer Kabushiki Kaisha, priority 1995, dated 2003).
